One may read the IC50 as the concentration at which inhibition is half-maximal. Higher therefore signals lower potency.

“And” between values parts separate entries of the source, which are not always exact repeats. Equal values may be shown once. Bounds are passed on as bounds.

The target of the test is MAPK14 (human) (UniProt Q16539). The experiment in a line: Inhibition of MAPK14 Kinase Activity. Particulars: THP.1 monocytic.
MAPK14 (human), sequence (Q16539 whole entry, looked up): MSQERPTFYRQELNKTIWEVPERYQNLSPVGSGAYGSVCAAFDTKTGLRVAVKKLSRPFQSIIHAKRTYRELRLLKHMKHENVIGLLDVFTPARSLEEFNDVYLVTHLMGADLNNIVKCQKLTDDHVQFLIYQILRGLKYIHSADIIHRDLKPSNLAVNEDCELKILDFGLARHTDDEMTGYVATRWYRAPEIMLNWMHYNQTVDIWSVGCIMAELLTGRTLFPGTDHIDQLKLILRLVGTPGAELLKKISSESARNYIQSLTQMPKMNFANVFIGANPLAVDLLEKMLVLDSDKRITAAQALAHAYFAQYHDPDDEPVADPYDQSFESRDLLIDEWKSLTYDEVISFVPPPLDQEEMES
For the compound `Cc1cc(OCc2ccc(F)cc2F)c(Cl)c(=O)n1-c1cc(CO)ccc1Cl`, the IC50 is under 1000 nM.
With `Cc1cc(OCc2ccc(F)cc2F)c(Br)c(=O)n1-c1ccc(C(=O)NO)cc1` the figure was over 100000 nM; with `O=c1c(Br)c(OCc2ccccc2)ccn1Cc1cccc(F)c1`, under 1000 nM.
The compound `Cc1cc(OCc2ccc(F)cc2F)c(Br)c(=O)n1Cc1ccc(C(=O)NCCCN)cc1` came in with an IC50 of under 1000 nM.
Take `Cc1c(I)c(NCc2ccccc2)c(Br)c(=O)n1-c1c(F)cccc1F`: the IC50 lay within 1000 to 25000 nM.
With `Cc1cc(OCc2ccc(F)cc2F)c(Br)c(=O)n1-c1cccc(C(=O)NC(C)C)c1` the figure was under 1000 nM.
On to `CC(=O)OCC(=O)NCc1cccc(-n2c(C)cc(OCc3ccc(F)cc3F)c(Br)c2=O)c1`, for which the concentration for half-maximal inhibition (IC50) is 1000 to 25000 nM.
Under `Cc1cc(OCc2ccc(F)cc2F)c(Br)c(=O)n1-c1cccc(C(N)=O)c1` stands under 1000 nM; under `O=c1[nH]ccc(OCc2ccccc2)c1Br`, over 100000 nM.
Consider `Cc1cc(OCc2ccc(F)cc2F)c(Br)c(=O)n1Cc1ccc(CN(CCO)CCO)cc1`, for which the half-inhibitory concentration (IC50) is under 1000 nM.
Under `Cc1cc(OCc2ccc(F)cc2F)c(Br)c(=O)n1Cc1ccccc1CN` stands 1000 to 25000 nM; under `Cc1cc(OCc2ccc(F)cc2F)c(Br)c(=O)n1-c1ccc(CNC(=O)CO)cc1`, under 1000 nM.
Under `Cc1cc(OCc2ccc(F)cc2F)c(Br)c(=O)n1Cc1cnc(C(=O)N(C)C)cn1` stands under 1000 nM; under `Cc1cc(OCc2cccc(Cl)c2)c(Br)c(=O)n1Cc1ccccc1`, 1000 to 25000 nM; under `O=c1cc(OCc2c(Cl)cccc2Cl)ccn1Cc1ccccc1`, over 100000 nM.
Under `O=c1cc(OCc2ccccc2Cl)ccn1Cc1ccccc1` stands 25000 to 100000 nM; under `Cc1ncc(Cn2c(C)cc(OCc3ccc(F)cc3F)c(Cl)c2=O)c(N)n1`, 1000 to 25000 nM.
For `O=c1c(Br)c(OCc2ccccc2C(F)(F)F)ccn1Cc1ccccc1`, the IC50 lay in the range of 25000 to 100000 nM.
With `Cc1ccc(CNC(C)C)cc1-n1c(C)cc(OCc2ccc(F)cc2F)c(Br)c1=O` the figure was 1000 to 25000 nM; with `NCc1ccccc1Cn1ccc(OCc2ccccc2)c(Br)c1=O`, 1000 to 25000 nM; with `Cc1cc(OCc2ccc(F)cc2F)c(Br)c(=O)n1-c1cccc(CNC(=O)N(C)C)c1`, 1000 to 25000 nM.
Under `O=c1c(Br)c(OCc2ccccc2)ccn1CC1CCCNC1` (stereo not given) stands over 100000 nM.
`CN(C)Cc1cc(OCc2ccc(F)cc2F)c(Br)c(=O)n1-c1c(F)cccc1F` came in with a 50% inhibitory concentration (IC50) of under 1000 nM.
Under `Cc1cc(OCc2ccc(F)cc2F)c(Br)c(=O)n1Cc1ccc(C(=O)NCCN)cc1` stands under 1000 nM; under `Cc1cccc(COc2ccn(Cc3cccc(F)c3)c(=O)c2Br)c1`, under 1000 nM; under `CCOC(=O)c1cnc(Cn2c(C)cc(OCc3ccc(F)cc3F)c(Cl)c2=O)cn1`, under 1000 nM.
With `Cc1cc(OCc2ccc(F)cc2F)c(Br)c(=O)n1-c1cc(CO)ccc1Cl` the figure was under 1000 nM; with `O=C(O)c1ccc(Cn2ccc(OCc3ccccc3)c(Br)c2=O)cc1`, under 1000 nM.
Compound `Cc1cc(OCc2ccc(F)cc2F)c(Br)c(=O)n1-c1cccc(C(=O)NCCN)c1` returned an IC50 of under 1000 nM.
`Cc1cc(OCc2ccc(F)cc2F)c(Br)c(=O)n1Cc1ccc(C(=O)N(C)CCO)cc1` had an IC50 of under 1000 nM.
The compound `C=CCNc1cc(C)n(-c2c(F)cccc2F)c(=O)c1Br` had a concentration for half-maximal inhibition (IC50) of 1000 to 25000 nM.
`Cc1cc(NCc2ccc(F)cc2F)c(Cl)c(=O)n1-c1c(F)cccc1F` displayed a concentration for half-maximal inhibition (IC50) of 1000 to 25000 nM.
The compound `Cc1c(OCc2ccccc2)ccn(Cc2cccc(F)c2)c1=O` yielded a 50% inhibitory concentration (IC50) of 1000 to 25000 nM.
`CNC(=O)NCc1cccc(-n2c(C)cc(OCc3ccc(F)cc3F)c(Br)c2=O)c1` registered a half-maximal inhibitory concentration (IC50) of 1000 to 25000 nM.
Under `Cc1cc(OCc2cccc(Cl)c2)cc(=O)n1Cc1ccccc1` stands over 100000 nM; under `CNC(=O)c1cccc(-n2c(C)cc(OCc3ccc(F)cc3F)c(Br)c2=O)c1`, under 1000 nM.
With `O=c1c(Br)c(NCc2ccc(F)cc2F)ccn1Cc1cccc(F)c1` the figure was under 1000 nM; with `O=c1c(Cl)c(OCc2ccc(F)cc2F)cc(CO)n1-c1c(F)cc(F)cc1F`, under 1000 nM; with `C=CCn1c(C)cc(OCc2ccc(F)cc2F)c(Br)c1=O`, under 1000 nM.
Under `Cc1c(Br)c(OCc2ccccc2)c(Br)c(=O)n1Cc1ccccc1` stands 25000 to 100000 nM; under `CNC(=O)c1ccc(OC)c(-n2c(C)cc(OCc3ccc(F)cc3F)c(Br)c2=O)c1`, under 1000 nM; under `Cc1cc(OCc2ccccc2)cc(=O)n1Cc1ccccc1`, 25000 to 100000 nM.
In turn, `Cc1cc(OCc2ccc(F)cc2F)c(Br)c(=O)n1-c1c(F)cc(N(C)C)cc1F` showed an IC50 of under 1000 nM.
Regarding `N#Cc1ccc(Cn2ccc(OCc3ccccc3)c(Br)c2=O)cc1`, the concentration for half-maximal inhibition (IC50) was under 1000 nM.
Take `Cc1cc(OCc2ccc(F)cc2F)c(Br)c(=O)n1-c1ccccc1C(F)(F)F`: the IC50 is under 1000 nM.
With `O=c1c(Br)c(OCc2ccccc2)ccn1Cc1ccc(Cl)cc1` the figure was under 1000 nM.
Under `COCCN(C)C(=O)c1ccc(Cn2c(C)cc(OCc3ccc(F)cc3F)c(Br)c2=O)cc1` stands under 1000 nM.
Under `COC(=O)c1ccc(-n2c(C)cc(OCc3ccc(F)cc3F)c(Br)c2=O)c(Cl)c1` stands under 1000 nM; under `Cc1cc(OCc2ccc(F)cc2F)c(Br)c(=O)n1-c1cc(CO)ccc1F`, 1000 to 25000 nM.
`CNC(=O)c1ccc(C)c(-n2c(C)cc(OCc3ccc(F)cc3F)c(Cl)c2=O)c1` yielded an IC50 of under 1000 nM.
In turn, `Cc1c(C2CO2)c(OCc2ccc(F)cc2F)c(Br)c(=O)n1-c1c(F)cccc1F` (stereo not given) had a half-maximal inhibitory concentration (IC50) of 25000 to 100000 nM.
With `O=c1c(Cl)c(OCc2ccc(F)cc2F)cc(CO)n1-c1c(F)cccc1F` the figure was under 1000 nM.
With `Cc1ccc(C(N)=O)cc1-n1c(C)cc(OCc2ccc(F)cc2F)c(Cl)c1=O` the figure was under 1000 nM; with `Cc1cc(OCc2ccc(F)cc2F)c(Cl)c(=O)n1-c1c(F)cc(F)cc1F`, under 1000 nM.
Under `COCCNC(=O)c1cccc(-n2c(C)cc(OCc3ccc(F)cc3F)c(Br)c2=O)c1` stands under 1000 nM; under `Cc1cc(OCc2ccc(F)cc2F)c(Br)c(=O)n1-c1ccc(C(C)(C)O)cn1`, over 100000 nM; under `Cc1cc(OCc2ccc(F)cc2F)c(Br)c(=O)n1-c1ccc2cn[nH]c2c1`, under 1000 nM.
`Cc1cc(OCc2ccc(F)cc2F)c(Br)c(=O)n1-c1cccc(CN(C)C)c1` had an IC50 of 1000 to 25000 nM.
The compound `Cc1cc(OCc2ccc(F)cc2F)c(Br)c(=O)n1Cc1cnc(C(C)(C)O)cn1` displayed an IC50 of 1000 to 25000 nM.
Under `Cc1cc(OCc2ccc(F)cc2F)c(Cl)c(=O)n1-c1cccc(C(=O)O)c1` stands 1000 to 25000 nM; under `Cc1cc(OCc2ccc(F)cc2F)c(Br)c(=O)n1-c1c(F)c(Br)c(O)c(Br)c1F`, 1000 to 25000 nM.
Under `O=c1c(I)c(OCc2ccccc2)ccn1Cc1ccccc1` stands 1000 to 25000 nM.
Turning to `Cc1cc(OCc2ccc(F)cc2F)c(Br)c(=O)n1-c1cccc(CN)c1`, the half-inhibitory concentration (IC50) was in the range of 1000 to 25000 nM.
With `O=C(c1ccc(-n2ccc(OCc3ccccc3)c(Br)c2=O)cc1)N1CCOCC1` the figure was 1000 to 25000 nM.
Under `CC(C)(C)c1ccc(Cn2ccc(OCc3ccc(F)cc3)c(Br)c2=O)cc1` stands 1000 to 25000 nM; under `Cc1cc(NCc2ccc(F)cc2F)c(Cl)c(=O)n1Cc1cccc(C#N)c1`, under 1000 nM.
With `O=c1c(Br)c(O)ccn1Cc1ccc(O)cc1` the figure was over 100000 nM.
Turning to `Cc1c(C#N)c(OCc2ccc(F)cc2F)c(Br)c(=O)n1-c1c(F)cccc1F`, the half-maximal inhibitory concentration (IC50) lay within 25000 to 100000 nM.
As for `COC(=O)CCn1ccc(OCc2ccccc2)c(Br)c1=O`, the half-maximal inhibitory concentration (IC50) was in the range of 1000 to 25000 nM.
`Cc1cc(OCc2ccc(F)cc2F)c(Br)c(=O)n1Cc1cnc(C(=O)N2CCN(C)CC2)cn1` returned an IC50 of under 1000 nM.
With `Cc1cc(OCc2ccc(F)cc2F)c(Br)c(=O)n1Cc1ccccc1C#N` the figure was 1000 to 25000 nM.
As for `NC(=O)c1cccc(Cn2ccc(OCc3ccccc3)c(Br)c2=O)c1`, the IC50 is 1000 to 25000 nM.
Under `Cc1ccc(CN(C)C)cc1-n1c(C)cc(OCc2ccc(F)cc2F)c(Br)c1=O` stands 1000 to 25000 nM; under `Cc1cc(OCc2ccc(F)cc2F)c(Br)c(=O)n1-c1cccc(CNS(C)(=O)=O)c1`, 1000 to 25000 nM; under `O=c1c(Br)c(OCc2ccccc2Cl)ccn1Cc1ccccc1`, 1000 to 25000 nM.
The compound `Cc1cc(OCc2ccc(F)cc2F)c(Br)c(=O)n1-c1ccc(C(N)=O)cc1` had an IC50 of 1000 to 25000 nM.
For the compound `O=c1c(Br)c(OCc2ccccc2)ccn1CC1CCNCC1`, the IC50 lay in the range of 25000 to 100000 nM.
With `Cc1cc(OCc2ccc(F)cc2F)c(Cl)c(=O)n1-c1cccc(CO)c1` the figure was 1000 to 25000 nM; with `Cc1cc(CCc2ccccc2)c(Br)c(=O)n1Cc1cccc(F)c1`, 1000 to 25000 nM.
With `Cc1cc(NCc2ccc(F)cc2)c(Br)c(=O)n1Cc1ccc(F)cc1` the figure was under 1000 nM; with `Cc1cc(OCc2ccc(F)cc2F)c(Br)c(=O)n1-c1c(F)cc(Br)cc1F`, under 1000 nM.
In turn, `Cc1cc(OCc2ccc(F)cc2F)c(Cl)c(=O)n1-c1c(F)cc(N2CCN(C)CC2)cc1F` registered an IC50 of under 1000 nM.
Under `CCc1c(OCc2ccccc2)ccn(Cc2ccccc2)c1=O` stands 1000 to 25000 nM; under `Cc1cccc(C)c1-n1c(C)cc(OCc2c(F)cc(F)cc2F)c(Br)c1=O`, under 1000 nM.
In turn, `Cc1cccc(C)c1-n1c(C)cc(OCc2ccc(F)cc2F)c(Br)c1=O` returned an IC50 of under 1000 nM.
With `O=c1c(Br)c(CCc2ccccc2)ccn1Cc1cccc(F)c1`, the IC50 was in the range of 1000 to 25000 nM.
Take `Cc1cc(OCc2ccc(F)cc2F)c(Br)c(=O)n1-c1ccc(C(=O)NCCCN)cc1`: the IC50 is under 1000 nM.
With `COC(=O)NCc1cccc(Cn2c(C)cc(OCc3ccc(F)cc3F)c(Br)c2=O)c1`, the IC50 is under 1000 nM.
The compound `O=c1c(Br)c(OCc2ccc(C(F)(F)F)cc2)ccn1Cc1cccc(F)c1` came in with an IC50 of 1000 to 25000 nM.
Under `O=c1c(Br)c(OCc2ccccc2-c2ccccc2)ccn1Cc1cccc(F)c1` stands over 100000 nM; under `Cc1cc(OCc2ccc(F)cc2F)c(Br)c(=O)n1Cc1cccc(CNC(N)=O)c1`, 1000 to 25000 nM; under `CNC(=O)c1ccc(Cn2c(C)cc(OCc3ccc(F)cc3F)c(Br)c2=O)cc1`, < 1000 nM and 1000 to 25000 nM.
As to `Cc1cc(OCc2ccc(F)cc2F)c(Br)c(=O)n1Cc1ccnc(CN)n1`, the IC50 lay within 1000 to 25000 nM.
Compound `Cc1cc(OCc2ccc(F)cc2F)c(Br)c(=O)n1CCN1CCOCC1` registered a concentration for half-maximal inhibition (IC50) of 25000 to 100000 nM.
As for `Cc1cc(OCc2ccc(F)cc2F)c(Br)c(=O)n1-c1cc(C(N)=O)ccc1F`, the half-inhibitory concentration (IC50) was under 1000 nM.

Source of the values: the Kinase Knowledgebase extract (Sharma et al. 2016).
